Measurements published in patent publication US20250288573A1 (H. LEE MOFFITT CANCER CENTER AND RESEARCH INSTITUTE, INC., priority 2018, published 2025).
Read-outs that look alike come from different tables or passages of the source.

Molecular target: T1, CRBN (Homo sapiens, UniProt Q96SW2)
T1 construct: endogenous in cells; host or cells: primary human T cells / CD8+ T cells from peripheral blood
Experiment: Western blot for expression of CRBN relative to vinculin in human T cells (CRBN degradation)
Type: cell-based
Settings: for remaining activity at 10 µM / remaining activity at 0.01 µM: read-out: Relative Density of CRBN (% of DMSO); for remaining activity at 0.01 µM: 24 h; for CRBN Degradation ** (WB): grade (+) to (++++) or words, key not given
Description: Bortez=bortezomib; MG132=proteasome inhibitor; MLN4924=NEDD8 inhibitor.
This assay is a standard Western blot assay for expression of CRBN relative to vinculin.
[…] 0.1 percent DMSO was used as a vehicle control.

T1 sequence (Q96SW2 whole entry): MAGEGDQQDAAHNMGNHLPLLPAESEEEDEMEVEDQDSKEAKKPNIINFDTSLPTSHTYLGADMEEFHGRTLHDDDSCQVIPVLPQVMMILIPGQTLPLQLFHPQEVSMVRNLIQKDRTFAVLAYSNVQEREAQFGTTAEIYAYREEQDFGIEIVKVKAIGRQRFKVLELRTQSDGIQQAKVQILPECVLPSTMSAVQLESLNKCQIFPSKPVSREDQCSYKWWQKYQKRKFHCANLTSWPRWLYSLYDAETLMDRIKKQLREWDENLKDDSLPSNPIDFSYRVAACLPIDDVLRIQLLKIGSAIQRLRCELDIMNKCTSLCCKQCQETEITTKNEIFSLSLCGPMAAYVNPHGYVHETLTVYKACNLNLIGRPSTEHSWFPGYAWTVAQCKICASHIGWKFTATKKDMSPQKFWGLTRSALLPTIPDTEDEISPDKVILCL

| SMILES | remaining activity at 10 µM (10uM) [%] | remaining activity at 0.01 µM (10nM, human T cells, 24 hours) [%] | also measured |
| --- | --- | --- | --- |
| O=C1CCC(N2Cc3ccc(NC(=O)CCCC(=O)Nc4ccc5c(c4)C(=O)N(C4CCC(=O)NC4=O)C5)cc3C2=O)C(=O)N1 (stereo not drawn) [EC2-060, N^1,N^5-bis(2-(2,6-Dioxopiperidin-3-yl)-3-oxoisoindolin-5-yl)glutaramide] | 40.3 | 48.4 | CRBN Degradation ** (WB): No degradation |
| O=C1CCC(N2Cc3ccc(NC(=O)CCCCCCC(=O)Nc4ccc5c(c4)C(=O)N(C4CCC(=O)NC4=O)C5)cc3C2=O)C(=O)N1 (stereo not drawn) [EC2-063, N^1,N^8-bis(2-(2,6-Dioxopiperidin-3-yl)-3-oxoisoindolin-5-yl)octanediamide] | 13.5 | 38.8 | – |
| O=C1CCC(N2Cc3ccc(NC(=O)CCCCC(=O)Nc4ccc5c(c4)C(=O)N(C4CCC(=O)NC4=O)C5)cc3C2=O)C(=O)N1 (stereo not drawn) [EC2-066] | 189 | – | – |
| Cc1sc2c(c1C)C(c1ccc(Cl)cc1)=N[C@@H](CC(=O)NCCCCC(=O)Nc1cccc(C(=O)NC3CCC(=O)NC3=O)c1)c1nnc(C)n1-2 (stereo partly drawn) [EC2-088] | – | – | CRBN Degradation (WB)/ IC50/DC50 Relative Density of CRBN (% of DMSO): value without qualifier (no concentration or unit printed): 43.73 ± 24.45 (1/25/19) |
| O=C1CCC(N2Cc3c(C#CCCCCCCCC(=O)Nc4cccc5c4CN(C4CCC(=O)NC4=O)C5=O)cccc3C2=O)C(=O)N1 (stereo not drawn) [EC2-100, N,10-bis(2-(2,6-Dioxopiperidin-3-yl)-1-oxoisoindolin-4-yl)dec-9-ynamide] | 32.2 | 55.5 | – |
| O=C1CCC(N2Cc3c(CCCCCCCCCC(=O)Nc4cccc5c4CN(C4CCC(=O)NC4=O)C5=O)cccc3C2=O)C(=O)N1 (stereo not drawn) [EC2-102, N,10-bis(2-(2,6-Dioxopiperidin-3-yl)-1-oxoisoindolin-4-yl)decanamide] | 25.2 | 58.9 | – |
| O=C1CCC(N2Cc3c(C#CCCCC(=O)Nc4cccc5c4CN(C4CCC(=O)NC4=O)C5=O)cccc3C2=O)C(=O)N1 (stereo not drawn) [EC2-108, N,6-bis(2-(2,6-Dioxopiperidin-3-yl)-1-oxoisoindolin-4-yl)hex-5-ynamide] | 79.7 | 85.6 | – |
| O=C1CCC(N2Cc3c(CCCCCC(=O)Nc4cccc5c4CN(C4CCC(=O)NC4=O)C5=O)cccc3C2=O)C(=O)N1 (stereo not drawn) [EC2-109, N,6-bis(2-(2,6-Dioxopiperidin-3-yl)-1-oxoisoindolin-4-yl)hexanamide] | 9.84 | 97.5 | – |
| Cc1nc2cccc(NC(=O)CCCCCCC(=O)Nc3cccc4nc(C)n(C5CCC(=O)NC5=O)c(=O)c34)c2c(=O)n1C1CCC(=O)NC1=O (stereo not drawn) [MA10-077, N1,N8-bis(3-(2,6-dioxopiperidin-3-yl)-2-methyl-4-oxo-3,4-dihydroquinazolin-5-yl)octanediamide] | 74.3 | 139 | – |
| Cc1nc2cccc(NC(=O)CCCCCCCC(=O)Nc3cccc4nc(C)n(C5CCC(=O)NC5=O)c(=O)c34)c2c(=O)n1C1CCC(=O)NC1=O (stereo not drawn) [MA10-086, N1,N9-bis(3-(2,6-Dioxopiperidin-3-yl)-2-methyl-4-oxo-3,4-dihydroquinazolin-5-yl)nonanediamide] | 71 | 138 | – |
| Cc1nc2cccc(NC(=O)CCCCC(=O)Nc3cccc4nc(C)n(C5CCC(=O)NC5=O)c(=O)c34)c2c(=O)n1C1CCC(=O)NC1=O (stereo not drawn) [MA10-088, N1,N6-bis(3-(2,6-Dioxopiperidin-3-yl)-2-methyl-4-oxo-3,4-dihydroquinazolin-5-yl)adipamide] | 58.1 | 135 | – |
| Cc1nc2cccc(NC(=O)CCCCCCCCC(=O)Nc3cccc4nc(C)n(C5CCC(=O)NC5=O)c(=O)c34)c2c(=O)n1C1CCC(=O)NC1=O (stereo not drawn) [MA10-090, N1,N10-bis(3-(2,6-Dioxopiperidin-3-yl)-2-methyl-4-oxo-3,4-dihydroquinazolin-5-yl)decanediamide] | 82.2 | 132 | – |
| Cc1nc2cccc(NCc3ccc(CNc4cccc5nc(C)n(C6CCC(=O)NC6=O)c(=O)c45)cc3)c2c(=O)n1C1CCC(=O)NC1=O (stereo not drawn) [MA10-112] | 21.4 | 5.13 | – |
| Cc1nc2cccc(CCCOCCOCCCc3cccc4nc(C)n(C5CCC(=O)NC5=O)c(=O)c34)c2c(=O)n1C1CCC(=O)NC1=O (stereo not drawn) [MA10-120, 3,3′-(((Ethane-1,2-diylbis(oxy))bis(propane-3,1-diyl))bis(2-methyl-4-oxoquinazoline-5,3(4H)-diyl))bis(piperidine-2,6-dione)] | – | – | remaining activity at 0.01 µM: 56.7%; remaining activity at 10 µM: 82.8% |
| Cc1nc2cccc(NC(=O)CCCCCC(=O)Nc3cccc4nc(C)n(C5CCC(=O)NC5=O)c(=O)c34)c2c(=O)n1C1CCC(=O)NC1=O (stereo not drawn) [MA10-121, N1,N7-bis(3-(2,6-Dioxopiperidin-3-yl)-2-methyl-4-oxo-3,4-dihydroquinazolin-5-yl)heptanediamide] | 72.6 | 56.5 | – |
| Cc1nc2cccc(NCc3cccc(CNc4cccc5nc(C)n(C6CCC(=O)NC6=O)c(=O)c45)n3)c2c(=O)n1C1CCC(=O)NC1=O (stereo not drawn) [MA10-126, 3,3′-(((Pyridine-2,6-diylbis(methylene))bis(azanediyl))bis(2-methyl-4-oxoquinazoline-5,3(4H)-diyl))bis(piperidine-2,6-dione)] | 61.1 | 54.2 | – |
| Cc1nc2cccc(C#CCOCCOCCOCC#Cc3cccc4nc(C)n(C5CCC(=O)NC5=O)c(=O)c34)c2c(=O)n1C1CCC(=O)NC1=O (stereo not drawn) [MA10-153, 3,3′-((((Oxybis(ethane-2,1-diyl))bis(oxy))bis(prop-1-yne-3,1-diyl))bis(2-methyl-4-oxoquinazoline-5,3(4H)-diyl))bis(piperidine-2,6-dione)] | 208 | 14.8 | CRBN Degradation ** (WB): No Degradation |
| CN1C(=O)CCC(N2Cc3c(CCCOCCOCCCc4cccc5c4CN(C4CCC(=O)N(C)C4=O)C5=O)cccc3C2=O)C1=O (stereo not drawn) [SM3-104, 3,3′-(((Ethane-1,2-diylbis(oxy))bis(propane-3,1-diyl))bis(1-oxoisoindoline-4,2-diyl))bis(1-methylpiperidine-2,6-dione)] | – | 92.1 | – |
| O=C1CC[C@H](N2Cc3c(CCCOCCOCCCc4cccc5c4CN([C@H]4CCC(=O)NC4=O)C5=O)cccc3C2=O)C(=O)N1 [XS01-011, (3S,3'S)-3,3′-(((Ethane-1,2-diylbisbis(oxy))bisbis(propane-3,1-diyl))bisbis(1-oxoisoindoline-4,2-diyl))bisbis(piperidine-2,6-dione)] | 38.1 | 3.42 | – |
| Cc1nc2c(NCc3ccc(CNc4cccc5c(=O)n(C6CCC(=O)NC6=O)c(C)nc45)cc3)cccc2c(=O)n1C1CCC(=O)NC1=O (stereo not drawn) [XS01-030, 3,3′-(((1,4-Phenylenebis(methylene))bis(azanediyl))bis(2-methyl-4-oxoquinazoline-8,3(4H)-diyl))bis(piperidine-2,6-dione)] | 93 | 12.1 | – |
| Cc1nc2cccc(CCc3ccc(CCc4cccc5nc(C)n(C6CCC(=O)NC6=O)c(=O)c45)cc3)c2c(=O)n1C1CCC(=O)NC1=O (stereo not drawn) [XS01-038, 3,3′-((1,4-Phenylenebis(ethane-2,1-diyl))bis(2-methyl-4-oxoquinazoline-5,3(4H)-diyl))bis(piperidine-2,6-dione)] | 133 | 29 | CRBN Degradation ** (WB): No degradation |
